Measured values as given in patent US20250352497A1, “BIGUANIDE BASE COMPOSITIONS, BIGUANIDE BASE PHARMACEUTICAL COMPOSITIONS, AND THEIR PREPARATIONS AND USES” (ADA FORSYTH INSTITUTE, INC., priority 2022, published 2025).

How the values were obtained:
Assay type in all cases: cell-based
[1] = test system: model microbiome simulating human oral microbiome; assay: Bacterial killing effects on model microbiome (optical density at 600 nm)
Procedure: (§1) Saliva samples were collected and pooled from 5 healthy volunteers as a model microbiome simulating human oral microbiome, and used to inoculate SHI medium containing different test compositions and controls.
(§2) 1 mL pooled saliva sample was added to each well of a 24-well plate that had been pre-coated with sterilized, cell-free saliva. The plate was incubated at 37° C. for 16 h in microaerobic conditions (2% O2, 5% CO2, balanced with nitrogen) to allow biofilm formation. After incubation, planktonic portion was collected, optical density was measured at 600 nm and cells were pelleted for DNA isolation. Meanwhile, 1 mL of SHI medium was added to the biofilm portion of each well, biofilm cells were dispersed by scraping and vortex to break the cell aggregates. Optical density was measured at 600 nm and cells were collected for DNA isolation.
However, the pH of the treated biofilm appeared to depend on the CHX base concentration administered. The pH of the biofilm treated with CHX base solutions and CHX base loaded MSN remained under 5.5 when the CHX base concentration was 75 μg/mL or lower. […]

[2] = test system: model microbiome simulating human oral microbiome; assay: pH of model microbiome (supernatant and saliva-derived biofilm) after treatment in the presence of 2% sucrose
Procedure: as §1, §2
Supernatant and biofilms prepared with the model microbiome simulating human oral microbiome according to Example III were treated with embodiments of the CHX base composition (e.g., solution embodiments of the CHX base composition prepared according to Example I (the CHX base solutions); and MSN3 prepared according to Example II(B)(ii)).
Supernatant and biofilms prepared with the model microbiome simulating human oral microbiome according to Example III were treated with CHX base solution (100 μg/mL, prepared according to Example I(A)); MSN3 (100 μg/mL and 125 μg/mL of CHX base, prepared according to Example I(B)); or nothing (control).

[3] = test system: model microbiome simulating human oral microbiome; assay: Total colony forming units in supernatant and biofilm after treatment; conditions: supernatant and biofilms
Procedure: as §1, §2
CHX-G and CPC were also evaluated in the same model microbiome prepared in supernatant and biofilms according to Example III.

| Structure (SMILES) | cells present after treatment ([1]; Example IV(B): CHX base solution 100 μg/mL, MSN3 100 and 125 μg/mL of CHX base) | survival/elimination of bacteria after treatment ([1]; Example IV, supernatant and biofilms) | pH of treated microbiome/biofilm compared with control ([2]; Example IV, 16 hr, 2% sucrose) | pH of the treated microbiome ([2]; supernatant and biofilms, various concentrations) | bacterial killing compared with MSN3 (200 μg/mL of CHX base) ([3]; 200 μg/mL) | bacteria remaining after treatment ([3]; Example V) | pH of treated biofilms compared with untreated biofilms ([2]; Example V) |
| --- | --- | --- | --- | --- | --- | --- | --- |
| [H]/N=C(\N/C(=N/[H])NCCCCCCNC(=N)NC(=N)Nc1ccc(Cl)cc1)Nc1ccc(Cl)cc1 [CHX base, Chlorhexidine] | abundant of cells | without complete elimination of bacteria | higher pH | ≤ 6.9 | – | – | – |
| N=C(NCCCCCCNC(=N)NC(=N)Nc1ccc(Cl)cc1)NC(=N)Nc1ccc(Cl)cc1.O=C(O)[C@H](O)[C@@H](O)[C@H](O)[C@H](O)CO.O=C(O)[C@H](O)[C@@H](O)[C@H](O)[C@H](O)CO [CHX-G, chlorhexidine digluconate] | – | – | – | – | killed more bacteria | no trace of bacteria | higher pH |
